Measured values from patent US6297230A, “Cyanoaziridines for treating cancer” (priority 2000, dated 2001).
Converted amounts (≈) assume the structure as drawn. “Also recorded” adds a separate entry of the source. Where two headings read alike, the source gives them in different places.

What was measured:
[1] = system: A-375 malignant melanoma cells; experiment: In vitro antitumor activity, A-375 melanoma; type: cell-based, human
Excerpt: 1) in vitro tumor cell viability assays using MTT and SRB dye reaction endpoints.
Sulforhodamine B (SRB) Assay for Adherent Tumor Cells
Sulforhodamine B (SRB) is a protein binding aminoxanthene dye with two sulfonic acid groups. (Lillie, R. D., H. J. Conn's Biological Stains, 9th Ed., Baltimore; Williams & Wilkins, 1977.) It quantitates whole cell protein content by the intensity of dye staining and relates this to the number of viable cells. […] The SRB assay is used for cells which normally adhere to surfaces (in this case plastic culture flasks or petri dishes) as part of their requirement for growth and division in vitro. The SRB assay is currently used by the National Cancer Institute in the anticancer drug screening program. (Skehan, et al., J Natl Cancer Inst 82:1107-1112, 1990; Rubinstein, et al., J Natl Cancer Inst 82:1113-1118, 1990.) Methodologic comparisons have shown that SRB results are linear for the number of tumor cells over a 100-fold range, and for protein content determined by a modified Lowry method or Standard Bradford (Bradford, M., Anal Biochem 72:248-254, 1976) methods. […] (Lillie, R. D., H. J. Conn's Biological Stains, 9th Ed., Baltimore; Williams & Wilkins, 1977.)
Cell cultures of 10^3 -10^7 cells growing in 96-well plastic microtiter plates are fixed with 50% trichloroacetic acid (TCA) for 30 minutes at 4° C. The cells are then stained with 0.4% (w/v) sulforhodamine B (SRB) dissolved in 1% acetic acid. Unbound dye is removed by 4 washes with 1% acetic acid, and protein-bound dye is extracted with 10 mM unbuffered Tris® base [tris(hydroxymethyl)aminomethane]. The optical density (OD) of this extracted solution is measured at […] in a microtiter plate ultraviolet absorbance detector. Cell viability is expressed as percent of control by dividing the optical densities and multiplying the result by 100.
Microculture Tetrazolium (MTT) Assay for Tumor Cells
(§1) Tumors are disaggregated into single cell suspensions using mechanical, hypoosmotic, and/or enzymatic (trypsin) methods. The cells are plated at a concentration of 3-5×10^4 per […] well into plastic 96-well plates. Growth medium containing 5-10% (vol/vol) heat-inactivated fetal bovine serum and penicillin/streptomycin (both […]) are added prior to incubation at 37° C. for 6 days. Afterwards the medium containing the drug is removed, the cells are centrifuged in fresh medium or phosphate-buffered saline (pH 7.4). A tetrazolium dye, […]-2,5-diphenyl tetrazolium (MTT), is then added. (Mossman, T., J Immunol 65:55-63, 1983.) This dye forms a colored formazan product upon activation by mitochondrial reductases in viable cells. Typically, the formazan product is solubilized in acid-propanol or DMSO. The intensity of the color is proportional to viable cell numbers and this is quantitated by spectrophotometric absorbance at 570 nm on a micro ELISA plate reader. The results are calibrated in % control absorbance from untreated tumor cells. (Alley, et al., Cancer Res 48:589-601, 1988.)
Table 3 gives the potencies of the new aziridine-1-carboxamides in a panel of human and murine tumor cells in culture. The tumor cell lines in this table are selected to represent a range of histological and growth phenotypes. Their characteristics are described below.
4.0 The Human A-375 Malignant Melanoma Cell Line was also developed by Girard, et al. (Girard, et al., J Natl Cancer Inst 51(5):1417-1423, 1973) from a human with advanced melanoma. The modal chromosome number is 67 and it has a low plating (colony forming) efficiency of 0.7% when grown on agar. These cells also form rapidly growing tumors when injected subcutaneously into immunodeficient athymic (nu/nu) mice. (Girard, et al., J Natl Cancer Inst 51(5):1417-1423, 1973.) These cells are also used in the NCI drug screening panel. (Skehan, et al., J Natl Cancer Inst 82:1107-1112, 1990.)

8226/S myeloma cells = experiment: MTT growth inhibition, parental 8226 myeloma cells; type: cell-based, human; details: for IC50: Table 5, Sensitive (parental) 8226; for Antitumor effect: parental and imexon-resistant myeloma cells
How it was run: (§2)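 Parental 8226/S and imexon-resistant 8226/I-R myeloma cells (selected with imexon up to 3.25 mg/mL) were exposed to drug continuously for 10 days at 37 °C. Viability was measured by MTT absorbance at 570 nm relative to untreated controls. IC50 was taken as the concentration giving 50% growth inhibition, from at least 2 assays.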

8226/I-R myeloma cells = experiment: MTT growth inhibition, imexon-resistant 8226 myeloma cells; type: cell-based, human; details: for Cross-resistance with imexon: 8226 imexon-resistant vs parental; for IC50 / Fold Resistance of IC50 R/IC50 's: Table 5; for IC50: imexon-resistant 8226; for Fold Resistance of IC50 R/IC50 's: imexon-resistant vs sensitive 8226
How it was run: as §2

[2] = system: L-1210 MDR leukemia cells; experiment: MTT growth inhibition, multidrug-resistant L-1210 leukemia cells; type: cell-based, mouse; details: for Fold Resistance of IC50 's (MDR/S): L-1210 MDR vs sensitive, 11520 min; for IC50: MDR L-1210, drug continuously present 8 days
Method: as §1
In addition, the imexon analogs have also been tested in a multidrug-resistant (MDR) mouse L-1210 leukemia cell line.
L-1210 MDR Cells represent a multidrug-resistant cell line developed for resistance to the alkylating agent mitomycin C. (Dorr, et al., Biochem Pharmacol 36(19):3115-3120, 1987.) This cell line has the same general growth characteristics of the parental line, but is cross-resistant to numerous natural-product based anticancer agents. This includes anthracyclines such as doxorubicin (Adriamycin®) and vinca alkaloids such as vincristine or vinblastine.
*Drug continuously present for 8 days; IC50 measured by MTT dye

[3] = Mus musculus, L1210, 192 h, read-out: IC50

Compound	IC50 ([1]; Homo sapiens, read-out: IC50) [µg/mL]	IC50 (8226/S myeloma cells; Homo sapiens, read-out: IC50) [µg/mL]	Cross-resistance with imexon (8226/I-R myeloma cells)	IC50 (8226/I-R myeloma cells; Homo sapiens, read-out: IC50) [µg/mL]	Fold Resistance of IC50 R/IC50 's (8226/I-R myeloma cells)	Fold Resistance of IC50 's (MDR/S) [2]	IC50 [2, 3] [µg/mL]	Antitumor effect (8226/S myeloma cells)	Enhanced potency: decrease in IC50 against myeloma cell growth (8226/S myeloma cells; compared with imexon) [%]	IC50 [1] [µg/mL]	IC50 (8226/S myeloma cells) [µg/mL]	IC50 (8226/I-R myeloma cells) [µg/mL]	IC50 [2] [µg/mL]	Potency relative to imexon (8226/S myeloma cells; myeloma cells)
N#CC1CN1C(=O)Nc1cccnc1 (stereo not drawn) [AMP 421, 2-Cyanoaziridine-1-[N-(3-pyridyl)]carboxamide]	2.3 (≈ 12.2 µM)	2.2 (≈ 11.7 µM)	lack of significant (>50% IC50 change) cross-resistance with imexon	2.8 (≈ 14.9 µM)	1.3	0.9	2.1 (≈ 11.2 µM)	–	–	–	–	–	–	–
N#CC1CN1C(=O)Nc1ccc(S(N)(=O)=O)cc1 (stereo not drawn) [AMP 422, 2-Cyanoaziridine-1-[N-(4-sulfamylphenyl)]carboxamide]	50 (≈ 188 µM)	> 100	–	< 100	–	–	> 10	no antitumor effects even at high concentrations	–	–	–	–	–	–
N#CC1CN1C(=O)Nc1cccc2ccccc12 (stereo not drawn) [AMP 423, 2-Cyanoaziridine-1-[N-(1-naphthyl)]carboxamide]	1 (≈ 4.21 µM)	1 (≈ 4.21 µM)	–	2.1 (≈ 8.85 µM)	2.1	0.4	0.64 (≈ 2.7 µM)	–	> 40	–	–	–	–	–
CC(=O)Oc1ccccc1NC(=O)N1CC1C#N (stereo not drawn) [AMP 424, 2-Cyanoaziridine-1-[N-(2-acetoxyphenyl)]carboxamide]	–	–	–	–	–	1.0	–	no antitumor effects even at high concentrations	–	> 10	> 100	> 100	> 10	–
CC(=O)c1cccc(NC(=O)N2CC2C#N)c1 (stereo not drawn) [AMP 425, 2-Cyanoaziridine-1-[N-(3-acetylphenyl)]carboxamide]	1.8 (≈ 7.85 µM)	1.98 (≈ 8.64 µM)	lack of significant (>50% IC50 change) cross-resistance with imexon; also recorded: no significant cross resistance	2.2 (≈ 9.6 µM)	1.1	0.8	1.8 (≈ 7.85 µM)	–	–	–	–	–	–	roughly equal potency to imexon
